Patent US8304419B2, “Chemical compounds” (priority 2007, dated 2012)
Where a name gives a salt, the structure may show the parent alone. Read-outs that look alike come from different tables or passages of the source.

System: HIV wild type (WTRVA)
Assay: HeLa cell assay, wild type virus (WTRVA)
Type: cell-based, HIV-1
Parameters: scale not given here
Conditions: Human immunodeficiency virus 1, HeLa
[1] = HeLa-CD4-LTR-β-gal cells, wild type virus, read-out: WTRVA activity level

| SMILES | IC50 [1] [nM] | IC50 (HeLa cell assay, read-out: IC50 against WTRVA) [nM] |
| --- | --- | --- |
| Cc1cccc2cc(C(=O)NCc3ccc(Cl)c(Oc4cc(Cl)cc(C#N)c4)c3F)[nH]c12 [Example 108, N-({4-chloro-3-[(3-chloro-5-cyanophenyl)oxy]-2-fluorophenyl}methyl)-7-methyl-1H-indole-2-carboxamide] | 10 to 1000 |  |
| N#Cc1cc(Cl)cc(Oc2c(Cl)ccc(CNC(=O)c3cc4ccc(Cl)cc4[nH]3)c2F)c1 [Example 110, 6-chloro-N-({4-chloro-3-[(3-chloro-5-cyanophenyl)oxy]-2-fluorophenyl}methyl)-1H-indole-2-carboxamide] | 10 to 1000 |  |
| N#Cc1cc(Cl)cc(Oc2c(Cl)ccc(CNC(=O)c3csc(-c4cccnc4)n3)c2F)c1 [Example 98, N-({4-chloro-3-[(3-chloro-5-cyanophenyl)oxy]-2-fluorophenyl}methyl)-2-(3-pyridinyl)-1,3-thiazole-4-carboxamide trifluoroacetate] | < 10 |  |
| N#Cc1cc(Cl)cc(Oc2c(Br)ccc(CNC(=O)c3nc(N)[nH]c3Cl)c2F)c1 [Example 239, 2-amino-N-({4-bromo-3-[(3-chloro-5-cyanophenyl)oxy]-2-fluorophenyl}methyl)-4-chloro-1H-imidazole-5-carboxamide] |  | < 10 |
| N#Cc1cc(Cl)cc(Oc2c(Cl)ccc(CNC(=O)c3ccc(S(N)(=O)=O)cc3Cl)c2F)c1 [Example 14, 4-(aminosulfonyl)-2-chloro-N-({4-chloro-3-[(3-chloro-5-cyanophenyl)oxy]-2-fluorophenyl}methyl)benzamide] | 10 to 1000 |  |
| N#Cc1cc(Cl)cc(Oc2c(Cl)ccc(CNC(=O)c3cc4cc(NC(=O)[C@@H]5CCCN5)ccc4[nH]3)c2F)c1 [Example 118, N-({4-chloro-3-[(3-chloro-5-cyanophenyl)oxy]-2-fluorophenyl}methyl)-5-(L-prolylamino)-1H-indole-2-carboxamide trifluoroacetate] | < 10 |  |
